Measurements: the supplement of paper PMC10307832

What was measured:
Assay in all cases: relative viability (nuclei count vs DMSO), 5 days (fraction); higher = more cells survive
201T = tested on: 201T
Procedure, shortened: (§1)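 Medians of duplicate plates are given as relative viability. That measure is the nuclei count in treated wells divided by the count in vehicle wells. Counts were taken on 4× images of lung cancer cell lines in 1536-well plates, 5 days after pin-tool dosing the day after seeding with one drug alone or a fixed anchor-drug dose plus five library-drug doses (not always all listed) in √10 steps.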

A-427 = tested on: A-427
Procedure, shortened: as §1

COR-L 105 = tested on: COR-L 105
Procedure, shortened: as §1

COR-L23 = tested on: COR-L23
Procedure, shortened: as §1

EKVX = tested on: EKVX
Procedure, shortened: as §1

HARA = tested on: HARA
Procedure, shortened: as §1

HCC-15 = tested on: HCC-15
Procedure, shortened: as §1

HCC-44 = tested on: HCC-44
Procedure, shortened: as §1

HCC-827 = tested on: HCC-827
Procedure, shortened: as §1

LK-2 = tested on: LK-2
Procedure, shortened: as §1

NCI-H1437 = tested on: NCI-H1437
Procedure, shortened: as §1

NCI-H1666 = tested on: NCI-H1666
Procedure, shortened: as §1

NCI-H1792 = tested on: NCI-H1792
Procedure, shortened: as §1

NCI-H1975 = tested on: NCI-H1975
Procedure, shortened: as §1

NCI-H23 = tested on: NCI-H23
Procedure, shortened: as §1

NCI-H520 = tested on: NCI-H520
Procedure, shortened: as §1

NCI-H596 = tested on: NCI-H596
Procedure, shortened: as §1

NCI-H650 = tested on: NCI-H650
Procedure, shortened: as §1

NCI-H838 = tested on: NCI-H838
Procedure, shortened: as §1

SK-MES-1 = tested on: SK-MES-1
Procedure, shortened: as §1

## COc1cc(N2CCC(C(N)=O)CC2)ccc1Nc1nc(N)c(Cl)c(Nc2ccccc2S(=O)(=O)C(C)C)n1 [HG-5-88-01] + CS(=O)(=O)CCNCc1ccc(-c2ccc3ncnc(Nc4ccc(OCc5cccc(F)c5)c(Cl)c4)c3c2)o1 [Lapatinib] (partner 2 µM)
201T; first compound 0.04 µM
  relative viability: 1.03
201T; first compound 0.1265 µM
  relative viability: 0.922
201T; first compound 0.4 µM
  relative viability: 1.01
201T; first compound 1.265 µM
  relative viability: 1.07
201T; first compound 4 µM
  relative viability: 1.14
A-427; first compound 0.04 µM
  relative viability: 0.976
A-427; first compound 0.1265 µM
  relative viability: 0.984
A-427; first compound 0.4 µM
  relative viability: 0.978
A-427; first compound 1.265 µM
  relative viability: 1.04
A-427; first compound 4 µM
  relative viability: 0.589
COR-L 105; first compound 0.04 µM
  relative viability: 0.346
COR-L 105; first compound 0.1265 µM
  relative viability: 0.375
COR-L 105; first compound 0.4 µM
  relative viability: 0.329
COR-L 105; first compound 1.265 µM
  relative viability: 0.336
COR-L 105; first compound 4 µM
  relative viability: 0.334
COR-L23; first compound 0.04 µM
  relative viability: 0.998
COR-L23; first compound 0.1265 µM
  relative viability: 1.07
COR-L23; first compound 0.4 µM
  relative viability: 0.957
COR-L23; first compound 1.265 µM
  relative viability: 0.921
COR-L23; first compound 4 µM
  relative viability: 0.629
EKVX; first compound 0.04 µM
  relative viability: 0.212
EKVX; first compound 0.1265 µM
  relative viability: 0.215
EKVX; first compound 0.4 µM
  relative viability: 0.184
EKVX; first compound 4 µM
  relative viability: 0.15
HARA; first compound 0.04 µM
  relative viability: 0.754
HARA; first compound 0.1265 µM
  relative viability: 0.528
HARA; first compound 0.4 µM
  relative viability: 0.671
HARA; first compound 1.265 µM
  relative viability: 0.71
HARA; first compound 4 µM
  relative viability: 0.31
HCC-15; first compound 0.04 µM
  relative viability: 0.878
HCC-15; first compound 0.1265 µM
  relative viability: 0.83
HCC-15; first compound 0.4 µM
  relative viability: 0.792
HCC-15; first compound 1.265 µM
  relative viability: 0.894
HCC-15; first compound 4 µM
  relative viability: 0.449
HCC-44; first compound 0.04 µM
  relative viability: 0.978
HCC-44; first compound 0.1265 µM
  relative viability: 0.987
HCC-44; first compound 0.4 µM
  relative viability: 0.845
HCC-44; first compound 1.265 µM
  relative viability: 1.04
HCC-44; first compound 4 µM
  relative viability: 0.669
HCC-827; first compound 0.04 µM
  relative viability: 0.202
HCC-827; first compound 0.1265 µM
  relative viability: 0.211
HCC-827; first compound 0.4 µM
  relative viability: 0.17
HCC-827; first compound 1.265 µM
  relative viability: 0.197
HCC-827; first compound 4 µM
  relative viability: 0.17
LK-2; first compound 0.04 µM
  relative viability: 0.94
LK-2; first compound 0.1265 µM
  relative viability: 0.841
LK-2; first compound 0.4 µM
  relative viability: 0.792
LK-2; first compound 1.265 µM
  relative viability: 0.42
LK-2; first compound 4 µM
  relative viability: 0.885
NCI-H1437; first compound 0.04 µM
  relative viability: 0.8
NCI-H1437; first compound 0.1265 µM
  relative viability: 0.945
NCI-H1437; first compound 0.4 µM
  relative viability: 0.756
NCI-H1437; first compound 1.265 µM
  relative viability: 0.761
NCI-H1437; first compound 4 µM
  relative viability: 0.454
NCI-H1666; first compound 0.04 µM
  relative viability: 0.742
NCI-H1666; first compound 0.1265 µM
  relative viability: 0.742
NCI-H1666; first compound 0.4 µM
  relative viability: 0.5
NCI-H1666; first compound 1.265 µM
  relative viability: 0.463
NCI-H1666; first compound 4 µM
  relative viability: 0.293
NCI-H1792; first compound 0.04 µM
  relative viability: 0.792
NCI-H1792; first compound 0.1265 µM
  relative viability: 0.892
NCI-H1792; first compound 0.4 µM
  relative viability: 0.864
NCI-H1792; first compound 1.265 µM
  relative viability: 0.879
NCI-H1792; first compound 4 µM
  relative viability: 0.888
NCI-H1975; first compound 0.04 µM
  relative viability: 0.896
NCI-H1975; first compound 0.1265 µM
  relative viability: 0.907
NCI-H1975; first compound 0.4 µM
  relative viability: 0.723
NCI-H1975; first compound 1.265 µM
  relative viability: 0.736
NCI-H1975; first compound 4 µM
  relative viability: 0.447
NCI-H23; first compound 0.04 µM
  relative viability: 1.05
NCI-H23; first compound 0.1265 µM
  relative viability: 1.23
NCI-H23; first compound 0.4 µM
  relative viability: 0.874
NCI-H23; first compound 1.265 µM
  relative viability: 1.05
NCI-H23; first compound 4 µM
  relative viability: 0.393
NCI-H520; first compound 0.04 µM
  relative viability: 0.825
NCI-H520; first compound 0.1265 µM
  relative viability: 0.896
NCI-H520; first compound 0.4 µM
  relative viability: 0.401
NCI-H520; first compound 1.265 µM
  relative viability: 0.813
NCI-H520; first compound 4 µM
  relative viability: 0.795
NCI-H596; first compound 0.04 µM
  relative viability: 0.956
NCI-H596; first compound 0.1265 µM
  relative viability: 1.03
NCI-H596; first compound 0.4 µM
  relative viability: 1.06
NCI-H596; first compound 1.265 µM
  relative viability: 1.12
NCI-H596; first compound 4 µM
  relative viability: 0.781
NCI-H650; first compound 0.04 µM
  relative viability: 0.962
NCI-H650; first compound 0.1265 µM
  relative viability: 1.01
NCI-H650; first compound 0.4 µM
  relative viability: 1.14
NCI-H650; first compound 1.265 µM
  relative viability: 0.943
NCI-H650; first compound 4 µM
  relative viability: 0.475
NCI-H838; first compound 0.04 µM
  relative viability: 0.906
NCI-H838; first compound 0.1265 µM
  relative viability: 0.952
NCI-H838; first compound 0.4 µM
  relative viability: 0.797
NCI-H838; first compound 1.265 µM
  relative viability: 0.708
NCI-H838; first compound 4 µM
  relative viability: 0.498
SK-MES-1; first compound 0.04 µM
  relative viability: 0.442
SK-MES-1; first compound 0.1265 µM
  relative viability: 0.453
SK-MES-1; first compound 0.4 µM
  relative viability: 0.407
SK-MES-1; first compound 1.265 µM
  relative viability: 0.477
SK-MES-1; first compound 4 µM
  relative viability: 0.469
